{
  "source": "paper PMC10591299",
  "about": "“Targeting SHP2 with an Active Site Inhibitor Blocks Signaling and Breast Cancer Cell Phenotypes” (ACS Bio & Med Chem Au, 2023)",
  "key": {"SHP1": {"target": "T1, SHP1 (Homo sapiens, UniProt P29350)", "T1 construct": "The GST fusion PTP domains of SHP1 and PTP1B were expressed and purified in a fashion similar to that of SHP2; GST; made in house", "T1 sequence (P29350 244-515 limits assumed)": "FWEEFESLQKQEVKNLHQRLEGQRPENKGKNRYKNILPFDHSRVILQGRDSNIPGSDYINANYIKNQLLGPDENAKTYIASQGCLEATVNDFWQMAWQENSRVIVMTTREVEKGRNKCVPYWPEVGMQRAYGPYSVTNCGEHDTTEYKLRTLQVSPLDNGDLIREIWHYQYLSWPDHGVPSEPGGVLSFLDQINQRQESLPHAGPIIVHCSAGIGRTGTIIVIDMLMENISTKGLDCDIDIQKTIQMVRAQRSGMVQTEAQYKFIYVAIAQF", "assay": "PTPase assay, GST-fusion PTP domain of SHP1, DiFMUP substrate", "format": "biochemical", "procedure": "After completion of synthesis, both CNBCA and CNBBA were purified on silica gel, and purity was determined by HPLC. The purified compounds were then tested for their effect on the SHP2 enzyme activity and on the activity of the selected control PTPs (SHP1 and PTP1B) by the phosphotyrosyl phosphatase (PTPase) assay as described previously.[30],[31] First, the GST fusion of the PTP domains of SHP2, SHP1, and PTP1B were produced and purified as reported by us previously.[32] The reactions were performed in a buffer containing 10 mM Tris-HCl (pH 7.2), 100 mM NaCl, 1 mM EDTA, 1 mM dithiothreitol (DTT), and 0.01% Tween-20. […] The complete mixture was incubated at 37 °C for 20 min, and fluorescence intensity was measured by the Synergy 4 plate reader at the excitation and emission wavelengths of 360 and 460 nm, respectively. The half inhibitory concentration (IC50) value of each compound was calculated and plotted using Graphpad Prism software. […]\nWe used the PTPase assay described previously[30],[31] to evaluate the effect of the newly synthesized compounds on the enzymatic activity of SHP2, SHP1, and PTP1B. […] The mixtures were incubated at 37 °C for 20 min and transferred to 96 well plates, and the fluorescence intensity was measured by a Synergy 4 plate reader at the excitation and emission wavelengths of 360 and 460 nm, respectively. […]"}, "PTP1B": {"target": "T2, PTP1B (Homo sapiens, UniProt P18031)", "T2 construct": "compared it with the nontarget PTP1B protein; endogenous in cells", "T2 sequence (P18031 1-435)": "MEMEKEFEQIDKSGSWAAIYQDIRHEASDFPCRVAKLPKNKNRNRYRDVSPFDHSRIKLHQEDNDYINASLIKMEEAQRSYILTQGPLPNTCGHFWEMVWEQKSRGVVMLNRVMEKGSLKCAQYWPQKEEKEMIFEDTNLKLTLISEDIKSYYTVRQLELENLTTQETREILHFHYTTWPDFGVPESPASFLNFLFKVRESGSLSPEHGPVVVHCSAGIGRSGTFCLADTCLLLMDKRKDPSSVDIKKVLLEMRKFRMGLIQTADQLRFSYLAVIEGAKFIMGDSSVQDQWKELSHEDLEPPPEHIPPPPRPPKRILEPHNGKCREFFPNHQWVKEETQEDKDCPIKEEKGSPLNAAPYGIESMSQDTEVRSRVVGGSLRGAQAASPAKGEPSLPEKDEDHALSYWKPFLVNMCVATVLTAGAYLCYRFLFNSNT", "assay": "Cellular thermal shift assay (CETSA), nontarget PTP1B immunoblot", "format": "binding", "conditions": "100 μM CNBCA, cell lysate", "from_the_text": "First, we used the cellular thermal shift assay (CETSA) to show whether CNBCA binds to endogenous full-length SHP2 under cellular contexts. The CETSA assay is based on the principle that specific inhibitors bind to a target protein and confer relative stability from heat-induced denaturation and precipitation when compared to a nontarget protein present in the same milieu.[34] Accordingly, we performed CETSA to test the effect of CNBCA on the SHP2 protein stability and compared it with the nontarget PTP1B protein as described in the materials and methods.\nAfter heat treatment, supernatants were analyzed by immunoblotting (IB) for SHP2 and the nontarget phosphatase PTP1B. […] To provide semiquantitative data, band densities of both SHP2 and PTP1B were measured and presented as bar graph. […] On the other hand, the nontarget protein PTP1B was reduced to approximately 50% at 49 °C, to 25% at 55 °C, and to less than 10% at 58 °C (Figure 3B and D).\nFor the CETSA study, total protein extracts (TPE) prepared from two breast cancer cells, the triple-negative MDA-MB468 and the HER2-positive JIMT-1 cells, were used. Briefly, TPE from the two cell lines were cleared by centrifugation, mixed with CNBCA at 100 μM concentration (the maximum amount used in the IC50 studies), and incubated for 10 min at room temperature to allow binding. The mixture was then divided into 100 μL aliquots, treated with heat for 10 min at different temperatures, ranging from 37 to 64 °C that differ by 3 °C intervals, cooled on ice for 10 min, centrifuged at 20,000g for 20 min to remove precipitated proteins, and the supernatants analyzed by immunoblotting (IB) for SHP2 and the nontarget PTP, PTP1B. Aliquots that were mixed with CNBCA, but not treated with heat were used as positive controls for comparison."}},
  "note": "pIC50: −log10 of the molar value.",
  "data": [
    {"smiles": "CCCCCCCCCOc1ccc(-c2ccc(C(=O)O)cc2)cc1CCCC(=O)O", "note": "[CNBCA, 3′-(3-carboxypropyl)-4′-(nonyloxy)-[1,1′-biphenyl]-4-carboxylic acid]", "values": [
      {"measurement": "pIC50", "setting": "SHP1; PTP domain, 1 nM enzyme, 35 μM DiFMUP", "result": 4.46},
      {"measurement": "selectivity ratio SHP1 versus SHP2", "setting": "SHP1; SHP2 IC50 as reference", "result": 39.77, "unit": "fold"},
      {"measurement": "PTP1B remaining in solution (band density)", "setting": "PTP1B; heat 49 °C 10 min", "result": "approximately 50%"},
      {"measurement": "PTP1B remaining in solution (band density)", "setting": "PTP1B; heat 55 °C 10 min", "result": 25, "unit": "%"},
      {"measurement": "PTP1B remaining in solution (band density)", "setting": "PTP1B; heat 58 °C 10 min", "result": "less than 10%"}
    ]}
  ]
}
